Test results: patent US12459967B2, “Modulators of 5′-nucleotidase, ecto and the use thereof” (Arcus Biosciences, Inc., priority 2016, dated 2025)

Molecular target: T1, human CD73 (Homo sapiens, UniProt P21589)
T1 construct: host or cells: CHO-K1 (suspension pool CHO-CD73)
T1 sequence (P21589 27-549): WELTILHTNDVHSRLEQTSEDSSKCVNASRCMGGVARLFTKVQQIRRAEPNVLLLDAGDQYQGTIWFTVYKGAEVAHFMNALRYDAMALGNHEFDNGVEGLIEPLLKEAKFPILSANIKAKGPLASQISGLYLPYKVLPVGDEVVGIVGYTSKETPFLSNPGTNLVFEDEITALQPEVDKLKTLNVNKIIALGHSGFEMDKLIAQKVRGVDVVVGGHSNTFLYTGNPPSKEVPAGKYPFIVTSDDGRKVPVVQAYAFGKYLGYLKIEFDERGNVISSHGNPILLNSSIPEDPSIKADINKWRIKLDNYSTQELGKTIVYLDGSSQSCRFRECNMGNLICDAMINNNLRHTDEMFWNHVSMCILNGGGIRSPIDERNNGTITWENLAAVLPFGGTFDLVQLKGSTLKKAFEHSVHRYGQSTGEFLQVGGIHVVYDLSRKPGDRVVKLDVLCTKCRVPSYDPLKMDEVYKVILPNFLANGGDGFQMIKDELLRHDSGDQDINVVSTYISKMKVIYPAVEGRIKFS
Assay: Inhibition of ecto-5′-nucleotidase (CD73) activity in CHO-CD73 cells, phosphate colorimetric readout
Type: cell-based
Details: CHO-K1 cells stably transfected with human CD73, 2500 cells per well, 25 μM AMP substrate, 50 minutes incubation at 37° C.; read-out: Potency: CD73 IC50
Method: Inhibition of Ecto-5′-nucleotidase Activity. Compounds were evaluated to determine their ecto-5′-nucleotidase (CD73) inhibitory activity. Briefly, CHO-K1 cells stably transfected with human CD73 were generated by LakePharma (Belmont, CA) using molecular cloning of human CD73 (http://www.uniprot.org/uniprot/P21589) and mammalian transient expression vector (P21589.1). After antibiotic selection in CD OptiCHO cell media (Invitrogen, Catalog #12681-011) containing 5 μg/mL Puromycin and 200 μg/mL Hygromycin B, a suspension pool of CHO-CD73 cells was collected and frozen in 7.5% DMSO in cell media without antibiotics.
On the day of the experiment, one vial of CHO-CD73 cells was thawed and suspended in assay media which consisted of 20 mM HEPES, pH 7.4, 137 mM NaCl, 5.4 mM KCl, 1.3 mM CaCl2), 4.2 mM NaHCO3 and 0.1% glucose. To test the ability of compounds to inhibit CD73 enzymatic activity, 2 μL of 500 μM of compounds dissolved in DMSO (50×) were added to a 96-well polystyrene plate containing 58 μL of assay buffer. Next, 20 μL of CHO-CD73 cells in assay buffer were added to assay plate followed by 20 μL of 125 μM AMP (Adenosine 5′-monophosphate monohydrate) in assay buffer. Final assay conditions consisted of 2500 cells per well in 2% DMSO and 25 μM of AMP substrate. After 50 minutes of incubation (37° C. and 5% CO2) and centrifugation at 225×g for 5 mins, 80 μL of supernatant were transferred to a 96-well Spectra Plate (PerkinElmer, cat #6005640) which was pre-dispensed with 20 μL of PiColorLock Gold colorimetric assay reagents (Thermo, cat #30 300 30). The amount of inorganic phosphate was determined by reading the absorbance at 620 nm on an EnVision Multilabel Plate Reader (PerkinElmer). Enzymatic activity of CD73 was based on the amount of phosphate generated. Percentage of activity was calculated based on DMSO and no cells control wells. IC50 values of compounds were determined by four parameter non-linear regression fitting of percentage of activity in GraphPad Prism software.

| SMILES | IC50 |
| --- | --- |
| CC(C)Nc1nc(Cl)nc2c1ncn2[C@@H]1O[C@H](COP(=O)(O)CP(=O)(O)O)[C@@H](O)[C@H]1O | < 100 nM |
| O=P(O)(O)CP(=O)(O)OC[C@H]1O[C@@H](n2cnc3c(NC4CC4)nc(Cl)nc32)[C@@H](F)[C@@H]1O | < 100 nM |
| CC(C)(C)CNc1nc(Cl)nc2c1ncn2[C@@H]1O[C@H](COP(=O)(O)CP(=O)(O)O)[C@@H](O)[C@H]1O | < 100 nM |
| CC(C)N(C)c1nc(Cl)nc2c1ncn2[C@@H]1O[C@H](COP(=O)(O)CP(=O)(O)O)[C@@H](O)[C@H]1O | < 100 nM |
| O=P(O)(O)CP(=O)(O)OC[C@H]1O[C@@H](n2cnc3c(NCc4cc(C(F)(F)F)cc(C(F)(F)F)c4)ncnc32)[C@H](O)[C@@H]1O | < 100 nM |
| O=P(O)(O)CP(=O)(O)OC[C@H]1O[C@@H](n2cnc3c(NCc4cccc(F)c4)nc(Cl)nc32)[C@@H](F)[C@@H]1O | < 100 nM |
| O=P(O)(O)CP(=O)(O)OC[C@H]1O[C@@H](n2cnc3c(NCc4cccc(Cl)c4)nc(Cl)nc32)[C@@H](F)[C@@H]1O | < 100 nM |
| O=P(O)(O)CP(=O)(O)OC[C@H]1O[C@@H](n2cnc3c(NCc4ccccc4Cl)nc(Cl)nc32)[C@@H](F)[C@@H]1O | < 100 nM |
| CN(Cc1ccccc1Cl)c1nc(Cl)nc2c1ncn2[C@@H]1O[C@H](COP(=O)(O)CP(=O)(O)O)[C@@H](O)[C@@H]1F | < 100 nM |
| O=P(O)(O)CP(=O)(O)OC[C@H]1O[C@@H](n2cnc3c(NCc4ccncc4)nc(Cl)nc32)[C@@H](F)[C@@H]1O | < 100 nM |
| O=P(O)(O)CP(=O)(O)OC[C@H]1O[C@@H](n2cnc3c(NCCc4ccccc4)nc(Cl)nc32)[C@@H](F)[C@@H]1O | < 100 nM |
| Cc1nc(NCc2ccccc2)c2ncn([C@@H]3O[C@H](COP(=O)(O)CP(=O)(O)O)[C@@H](O)[C@@H]3F)c2n1 | < 100 nM |
| Cc1nc(NC2CCCC2)c2ncn([C@@H]3O[C@H](COP(=O)(O)CP(=O)(O)O)[C@@H](O)[C@@H]3F)c2n1 | < 100 nM |
| O=P(O)(O)CP(=O)(O)OC[C@H]1O[C@@H](n2cnc3c(NCc4ccccc4)nc(C(F)(F)F)nc32)[C@@H](F)[C@@H]1O | < 100 nM |
| O=P(O)(O)CP(=O)(O)OC[C@H]1O[C@@H](n2cnc3c(NC4CCCC4)nc(C(F)(F)F)nc32)[C@@H](F)[C@@H]1O | < 100 nM |
| O=P(O)(O)CP(=O)(O)OC[C@H]1O[C@@H](n2cnc3c(NCc4ccccc4)nc(-c4ccccc4)nc32)[C@@H](F)[C@@H]1O | < 100 nM |
| O=P(O)(O)CP(=O)(O)OC[C@H]1O[C@@H](n2cnc3c(NCc4ccccc4)nc(Cc4ccccc4)nc32)[C@@H](F)[C@@H]1O | < 100 nM |
| O=P(O)(O)CP(=O)(O)OC[C@H]1O[C@@H](n2cnc3c(NC4CCCC4)nc(CN4CCCCC4)nc32)[C@@H](F)[C@@H]1O | 100 to 1000 nM |
| COCc1nc(NC2CCCC2)c2ncn([C@@H]3O[C@H](COP(=O)(O)CP(=O)(O)O)[C@@H](O)[C@@H]3F)c2n1 | < 100 nM |
| O=P(O)(O)CP(=O)(O)OC[C@H]1O[C@@H](n2cnc3c(NCc4ccccc4)nc(C(O)c4ccccc4)nc32)[C@@H](F)[C@@H]1O (stereo partly shown) | < 100 nM |
| O=P(O)(O)CP(=O)(O)OC[C@H]1O[C@@H](n2cnc3c(NCc4ccccc4)nc(C#Cc4ccccc4)nc32)[C@@H](F)[C@@H]1O | < 100 nM |
| O=P(O)(O)CP(=O)(O)OC[C@H]1O[C@@H](n2cnc3c(NCc4ccccc4)nc(CCc4ccccc4)nc32)[C@@H](F)[C@@H]1O | < 100 nM |
| C#Cc1nc(NCc2ccccc2)c2ncn([C@@H]3O[C@H](COP(=O)(O)CP(=O)(O)O)[C@@H](O)[C@@H]3F)c2n1 | < 100 nM |
| O=P(O)(O)CP(=O)(O)OC[C@H]1O[C@@H](n2cnc3c(OCc4ccccc4)nc(Cl)nc32)[C@@H](F)[C@@H]1O | < 100 nM |
| O=P(O)(O)CP(=O)(O)OC[C@H]1O[C@@H](n2ccc3c(NCc4ccccc4)nc(Cl)nc32)[C@@H](F)[C@@H]1O | < 100 nM |
| O=P(O)(O)CP(=O)(O)OC[C@H]1O[C@@H](n2ccc3c(NC4CCCC4)nc(Cl)nc32)[C@@H](F)[C@@H]1O | < 100 nM |

| SMILES | IC50 |
| --- | --- |
| CC(Cn1cnc2c(NCc3ccccc3)ncnc21)OP(=O)(O)CP(=O)(O)O (stereo not shown) | > 1000 nM |
| CC(COP(=O)(O)CP(=O)(O)O)n1cnc2c(NCc3ccccc3)ncnc21 (stereo not shown) | > 1000 nM |
| Nc1nc(F)nc2c1ncn2[C@@H]1O[C@H](COP(=O)(O)CP(=O)(O)O)[C@@H](O)[C@H]1O | < 100 nM |
| Nc1nc(C(O)C2CC2)nc2c1ncn2[C@@H]1O[C@H](COP(=O)(O)CP(=O)(O)O)[C@@H](O)[C@@H]1F (stereo partly shown) | < 100 nM |
| CN(c1nc(Cl)nc2c1ncn2[C@@H]1O[C@H](COP(=O)(O)CP(=O)(O)O)[C@@H](O)[C@H]1O)C1CCCC1 | < 100 nM |
| CC(OP(=O)(O)CP(=O)(O)O)[C@H]1O[C@@H](n2cnc3c(NCc4ccccc4)nc(Cl)nc32)[C@H](O)[C@@H]1O (stereo partly shown) | < 100 nM |
| CCC(OP(=O)(O)CP(=O)(O)O)[C@H]1O[C@@H](n2cnc3c(NCc4ccccc4)nc(Cl)nc32)[C@H](O)[C@@H]1O (stereo partly shown) | < 100 nM |
| C[C@@]1(O)[C@H](O)[C@@H](COP(=O)(O)CP(=O)(O)O)O[C@H]1n1cnc2c(NC3CCCC3)nc(Cl)nc21 | < 100 nM |
| CN(c1nc(Cl)nc2c1ncn2[C@@H]1O[C@H](COP(=O)(O)CP(=O)(O)O)[C@@H](O)[C@@]1(C)O)C1CCCC1 | < 100 nM |
| COP(=O)(O)CP(=O)(O)OC[C@H]1O[C@@H](n2cnc3c(NC4CCCC4)nc(Cl)nc32)[C@H](O)[C@@H]1O | 100 to 1000 nM |
| CN(c1nc(Cl)nc2c1ncn2[C@@H]1O[C@H](COP(=O)(CP(=O)(Oc2ccccc2)Oc2ccccc2)Oc2ccccc2)[C@@H](O)[C@H]1O)C1CCCC1 (stereo partly shown) | > 1000 nM |
| CN(c1nc(Cl)nc2c1ncn2[C@@H]1O[C@H](COP(=O)(CP(=O)(Oc2cccc(Cl)c2)Oc2cccc(Cl)c2)Oc2cccc(Cl)c2)[C@@H](O)[C@H]1O)C1CCCC1 (stereo partly shown) | > 1000 nM |
| CN(c1nc(Cl)nc2c1ncn2[C@@H]1O[C@H](COP(=O)(CP(=O)(Oc2ccc(Cl)c(Cl)c2)Oc2ccc(Cl)c(Cl)c2)Oc2ccc(Cl)c(Cl)c2)[C@@H](O)[C@H]1O)C1CCCC1 (stereo partly shown) | > 1000 nM |
| COC(=O)c1ccccc1OP(=O)(CP(=O)(Oc1ccccc1C(=O)OC)Oc1ccccc1C(=O)OC)OC[C@H]1O[C@@H](n2cnc3c(N(C)C4CCCC4)nc(Cl)nc32)[C@H](O)[C@@H]1O (stereo partly shown) | > 1000 nM |
| C[C@H](Nc1nc(Cl)nc2c1ncn2[C@@H]1O[C@H](COP(=O)(O)CP(=O)(O)O)[C@@H](O)[C@@H]1F)c1ccc(F)cc1 | < 100 nM |
| C[C@@H](Nc1nc(Cl)nc2c1ncn2[C@@H]1O[C@H](COP(=O)(O)CP(=O)(O)O)[C@@H](O)[C@@H]1F)c1ccccc1 | < 100 nM |
| C[C@H](Nc1nc(Cl)nc2c1ncn2[C@@H]1O[C@H](COP(=O)(O)CP(=O)(O)O)[C@@H](O)[C@@H]1F)c1ccccc1 | < 100 nM |
| O=P(O)(O)CP(=O)(O)OC[C@H]1O[C@@H](n2cnc3c(NC4CCCC4)nc(C(O)C4CCOCC4)nc32)[C@@H](F)[C@@H]1O (stereo partly shown) | 100 to 1000 nM |
| CN(c1nc(Cl)nc2c1ncn2[C@@H]1O[C@H](COP(=O)(O)CP(=O)(O)O)[C@@H](O)[C@@H]1F)C1CCCC1 | < 100 nM |
| COP(=O)(O)CP(=O)(O)OC[C@H]1O[C@@H](n2cnc3c(N(C)C4CCCC4)nc(Cl)nc32)[C@@H](F)[C@@H]1O | 100 to 1000 nM |
| COP(=O)(O)CP(=O)(OC)OC[C@H]1O[C@@H](n2cnc3c(N(C)C4CCCC4)nc(Cl)nc32)[C@@H](F)[C@@H]1O (stereo partly shown) | > 1000 nM |
| COP(=O)(CP(=O)(O)OC[C@H]1O[C@@H](n2cnc3c(N(C)C4CCCC4)nc(Cl)nc32)[C@@H](F)[C@@H]1O)OC | > 1000 nM |
| COP(=O)(CP(=O)(O)O)OC[C@H]1O[C@@H](n2cnc3c(N(C)C4CCCC4)nc(Cl)nc32)[C@@H](F)[C@@H]1O (stereo partly shown) | < 100 nM |
| O=P(O)(O)CP(=O)(O)OC[C@H]1O[C@@H](n2ncc3c(NC4CCCC4)nc(Cl)nc32)[C@H](O)[C@@H]1O | < 100 nM |
| O=P(O)(O)CP(=O)(O)OC[C@H]1O[C@@H](n2ncc3c(NCc4ccccc4)nc(Cl)nc32)[C@H](O)[C@@H]1O | < 100 nM |
| C[C@H](Nc1nc(Cl)nc2c1cnn2[C@@H]1O[C@H](COP(=O)(O)CP(=O)(O)O)[C@@H](O)[C@H]1O)c1ccccc1 | < 100 nM |
